This note sets out measurements from PMC5108082, “Pharmacokinetics, toxicity, and cytochrome P450 modulatory activity of plumbagin” (BMC Pharmacology & Toxicology, 2016).

Data set [1] is described as follows: acute toxicity test, single oral dose. The following applies: both sexes, Wistar, rat, in vivo, rats, single oral dose. It counts as in vivo, rat. The procedure: (§1) Plumbagin was dissolved with 20 % Tween-80 to obtain the desired concentrations. Wistar rats were fasting 2 h before administration of a single oral dose of the plumbagin. Animals were divided into eight groups of six (3 males and 3 females for each group). For the acute toxicity test, rats in each group were fed with plumbagin at a single oral dose of 500, 250, or 150 mg/kg body weight (1 mL); control group received a single oral dose of 20 % Tween-80 (1 mL). For the subacute toxicity test, rats in each group were fed with plumbagin at a daily dose of 100, 50, or 25 mg/kg body weight (1 mL) for 28 days; control group received a daily oral dose of 20 % Tween-80 for 28 days (1 mL).
(§2) General behavioral changes of each rat was observed continuously for 1 h after each dose, intermittently every 4 h, and thereafter over a period of 24 h. […] At the end of the observation period, all animals were sacrificed under ether anesthesia (isoflurane) and vital organs (liver, lung, kidney, heart, and spleen) were removed from all animals for gross and histopathological examination. Blood sample was collected from each rat through cardiac puncture for analysis of plasma chemistry (heparin as an anticoagulant) and blood hematology (EDTA as an anticoagulant).

In the next data set the test system is Wistar rats. Nature of the data set: acute toxicity test, single oral dose. The data set is classed as in vivo, rat. The procedure:
as §1, §2

In a further data set the test system is CYP1A2. Nature of the data set: CYP1A2 activity (phenacetin O-deethylation) in liver microsomes of treated mice. It counts as in vivo, mouse. The following applies: for modulation of CYP1A2 activity (paracetamol produced): mice, 25, 12.5, 6.25 mg/kg daily oral for 28 days vs control. Here is the method:
Mice were divided into four groups (3 male mice each). Mice in the treated groups were fed with plumbagin at a daily oral dose of 25, 12.5, or 6.25 mg/kg body weight (1 mL) for 28 days. The control group received a daily oral dose (1 mL) of 20 % Tween-80 for 28 days. At the end of the experiment period, all animals were sacrificed under ether anesthesia and livers were removed for investigation of the modulatory effect of plumbagin on hepatic CYP1A2 and CYP3A11.
The liver samples were rinsed with ice-cold, 0.9 %NaCl, homogenized in 50 mM sodium phosphate buffer (pH 7.4) containing 0.1 mM EDTA, and centrifuged at 9000 × g for 20 min. The supernatant was ultracentrifuged at 105,000 × g for 60 min, and the resulting microsomal pellets were suspended with ice cold 1.15 % KCl solution and ultracentrifuged at 105,000 × g for 60 min. The pellets were homogenized with 50 mM potassium phosphate (pH 7.4) containing 0.1 mM EDTA and 10 % glycerol. Protein concentrations were determined by Bradford protein assay and the suspended microsomes were aliquoted and stored at −80 °C until use.
Phenacetin O-deethylation and nifedipine oxidation were used as selective markers for CYP1A2 and CYP3A11 activities, respectively. The substrate concentration equivalent to the apparent Km (Michaelis-Menten constant) of each individual CYP450 was used in the experiment. Final concentration of organic solvent in the incubation mixture was less than 1 %. The incubation conditions for determination enzyme activity to both CYP450 isoforms were according to the previously described methods.
The incubation mixture of 500 μL containing the selective substrate (20 μM phenacetin and 40 μm nifedipine for CYP1A2 and CYP3A11, respectively), mice liver microsomes (in 100 mM phosphate buffer pH 7.4) was pre-incubated at 37 °C for 5 min in a shaking water bath. […] Concentrations of paracetamol (metabolite of CYP1A2) and oxidized nifedipine (metabolite of CYP3A11) in the incubation mixtures were determined using HPLC with UV detection. […]

[2] abbreviates: single oral dose 150 mg/kg body weight, 14 days observation.

“Also recorded” adds a separate entry of the source.

Broadly, the LD50 is the dose at which mortality reaches 50%.

With `CC1=CC(=O)c2c(O)cccc2C1=O` [plumbagin, 5-hydroxy-2-methyl-1,4-naphthoquinone], the LD50 at 14 days in data set [1] (read-out: 50 % lethal dose (LD50), acute toxicity) was 250 mg/kg. The MTD at 14 days in data set [1] (read-out: maximum tolerated dose, acute toxicity) was determined as 150 mg/kg. Further, the gender-specific toxicity result in the data set with Wistar rats (all dose levels) was “No gender-specific toxicity was observed”. Moreover, the “histopathological examination (liver, kidney, heart, spleen, lung)” value in the data set on Wistar rats (all dose levels (150, 250, 500 mg/kg)) is “no significant change in size and morphology”. Further, the “signs of toxicity, water and food consumption, body weight” value in the data set on Wistar rats (setting [2]) is “no visible sign of toxicity”. Further, the survival result in the data set with Wistar rats (setting [2]) is “All rats survived”. Also, the animals died is given as 3/6 with Wistar rats (single oral dose 250 mg/kg body weight) and 6/6 in the data set with Wistar rats (single oral dose 500 mg/kg body weight). In the data set with Wistar rats (single oral dose 250 and 500 mg/kg body weight), the signs of toxicity result was “toxic signs and symptoms including anxiety, salivation, exhibited chewing, and agitation”. The “modulation of CYP1A2 activity (paracetamol produced)” value in the data set with CYP1A2 was “no significant change; also recorded: not found to induce or inhibit”; in the data set on CYP1A2 (listed as Plumbagin), “did not significantly modulate”. The “trend of CYP1A2 activity” value with CYP1A2 (particularly at the lowest dose level of 6.25 mg/kg body weight) was “tended to be reduced”.
